# Experiments:
# water solubility = type: physicochemical
# [1] = mammals and Phase 1 clinical trial in patients; Carson et al. 1984; cited from earlier work
# L1210 leukemia cells = experiment: in vivo assay for antileukemic activity (median lifespan); set-up: species or system mouse (male CD2 F1); key to % T/C Animals (1): Tx = Toxic; details: IP once daily Days 3-7
# Description: Another test protocol is the in vivo assay for antileukemic activity. This assay is carried out with male CD2 F1 mice (six per treatment group) that weigh 22-24 grams at first treatment. L1210 leukemia cells are harvested from the peritoneal ascites fluid of a leukemic male DBA2 mouse and diluted with sterile 0.9% saline containing 2.1% W/V bovine serum albumin, 2000 U/ml penicillin, and 0.3 mg/ml streptomycin. The cells are counted with a Coulter counter. The mice are randomized, inoculated with 10^4 L1210 cells (0.5 ml, IP), and rerandomized to treatment or control groups on Day 0. The test compound is dissolved in 10% aqueous dimethylsulfoxide. Treatment groups are injected IP with 0.5 ml of freshly made DMSO solutions of the test compound once daily on Days 3-7. Control mice are treated with 0.5 ml 10% dimethylsulfoxide. All mice are weighed on Days 3 and 7 and all dying mice are autopsied to confirm the presence of advanced leukemia. A % T/C value [T/C computed as (median lifespan of the treated group/median lifespan of the control group)] greater than 125 is considered as showing significant activity. The results for nucleotide compounds and compositions of the invention exemplified by 3'-acetyl-2-chloro-2'-deoxy-5'-adenylic acid, monosodium salt, are presented in Table I.
# Colon 08 = experiment: tumor growth delay assay, Colon 08; type: in vivo, mouse (CD2F1 hybrid); set-up: key to Rating: Tx: Toxic; ++++: High Activity; +++: Marked Activity; ++: Moderate Activity; +: Slight Activity; -: Inactive; UT: Unsatisfactory Test; details: 15 mg/kg (dose of greatest activity), IP
# Description: (§1) A test protocol to show activity of the compounds of the present invention against solid tumors was that described below, for example, in inhibiting the growth of colon tumors.
# (§2) The tumor growth delay assay assesses the antitumor activity of a test agent by measurement of the treatment-induced delay of tumor growth.
# (§3) Test animals were CD2F1 hybrid mice derived from the inbred strain of tumor origin. After the required mice were randomized they received 30-50 mg subcutaneous implants of either colon 36 or colon 8 by trocar on Day 0. Samples of each donor tumor were incubated in thioglycolate media as a check for contamination of the tumor material. After tumor inoculation mice were rerandomized and distributed at 10 mice per treatment group (20 for control).
# (§4) Drug treatment was initiated when tumors reached measurement in two dimensions by the formula:
# (§5) tumor weight (mg)=(a+b^2)
# (§6) where a and b are the tumor length and width, respectively. Drug, suspended in methyl-cellulose, was administered intraperitoneally Q4HX3 for nine consecutive days in a range of toxic to nontoxic doses. Tumor-bearing control groups were injected with methyl-cellulose. Animal survival was monitored daily. Tumors were measured twice weekly and animal weights recorded on a weekly basis. All dead mice were autopsied to determine the cause of death (drug or tumor). Any mouse bearing a tumor larger than the smallest lethal control tumor for two consecutive measurements was sacrificed, provided that greater than 25 days had elapsed since last treatment. Any tumor-free mouse was retained long enough so that a single surviving tumor cell at last treatment could grow to an unmistakable subcutaneous tumor.
# (§7) T/C was calculated based on the difference in days required for the treated (T) and control (C) groups to reach an evaluation size of 1000 mg. Gross and net logs of cell kill were determined based on standard methodologies. The degree of activity or rating is a function of cell kill. Activity is defined in accordance with the standard methodologies as follows: […]
# Colon 36 = experiment: tumor growth delay assay, Colon 36; type: in vivo, mouse (CD2F1 hybrid); set-up: key to Rating: Tx: Toxic; ++++: High Activity; +++: Marked Activity; ++: Moderate Activity; +: Slight Activity; -: Inactive; UT: Unsatisfactory Test; details: 9.5 mg/kg (dose of greatest activity), IP
# Description: as §1, §2, §3, §4, §5, §6, §7
# [2] = difference in days to reach 1000 mg
Structure (SMILES),water solubility (in words) (water solubility),solubility (water solubility; in water) [µg/mL],antileukemic and immunosuppressive activity [1],"% T/C Animals (1) (L1210 leukemia cells; 48 mg/kg, >125 significant) [%]","% T/C Animals (2) (L1210 leukemia cells; 48 mg/kg, >125 significant) [%]","% T/C Animals (1) (L1210 leukemia cells; 77 mg/kg, >125 significant) [%]","% T/C Animals (2) (L1210 leukemia cells; 77 mg/kg, >125 significant) [%]",% T/C Animals (1) (L1210 leukemia cells; 124 mg/kg),"% T/C Animals (2) (L1210 leukemia cells; 124 mg/kg, >125 significant) [%]",% T/C Animals (1) (L1210 leukemia cells; 200 mg/kg),Rating (Colon 08),T/C (Colon 08; [2]),Net Kill (Colon 08; net logs of cell kill),Rating (Colon 36),T/C (Colon 36; [2]),Net Kill (Colon 36; net logs of cell kill)
Nc1nc(Cl)nc2c1ncn2[C@H]1C[C@H](O)[C@@H](CO)O1 [2-chloro-2'-deoxyadenosine],sparingly soluble in water,~1000,antileukemic and immunosuppressive activity,–,–,–,–,–,–,–,–,–,–,–,–,–
"CC(=O)O[C@H]1C[C@H](n2cnc3c(N)nc(Cl)nc32)O[C@@H]1COP(=O)([O-])O.O.[Na+] [Example 1, 2-Chloro-2'-deoxy-5'-adenylic Acid, 3'-acetate, Monosodium Salt, Monohydrate]",–,–,–,124,149,126,112,Tx,87,Tx,+,12.9,0.4,++,14.0,0.6
